Experiments:
[1] = Oxygen Radical Absorbance Capacity (ORAC) assay against hydroxyl radicals; conditions: trolox equivalent
Procedure: (§1) Test Method: Oxygen Radical Absorbance Capacity (ORAC) Assay Specific method: An extraction solution containing a solubilizing compound was prepared, the sample was added to the extraction solution to extract the antioxidants present in the sample, and a fluorescent probe was added to the extract, a free radical generator was added to the extract, to detect the decay of the fluorescence intensity of the probe in the sample over time, and calculate the oxidation resistance of the sample based on the decay of the fluorescence intensity of the probe in the sample. The results of ORAC are expressed as micromole trolox equivalent (μmole TE)/gram. Trolox is a vitamin E analog, which is an antioxidant standard substance.

[2] = Solubility in water; assay type: physicochemical; conditions: extracted α-mangostin
[3] = Oxygen Radical Absorbance Capacity (ORAC) assay against single oxygen; conditions: trolox equivalent
Procedure: as §1

[4] = Oxygen Radical Absorbance Capacity (ORAC) assay against oxide anion; conditions: trolox equivalent
Procedure: as §1

[5] = Oxygen Radical Absorbance Capacity (ORAC) assay against peroxynitrite; conditions: trolox equivalent
Procedure: as §1

[6] = UV absorption spectra in the UV wavelength region; assay type: physicochemical; conditions: FIG. 1, UVB 290-320 nm and UVA 320-400 nm
Excerpt: The present inventors tested the UV absorbance of α-mangostin, butyl methoxydibenzoylmethane and octyl salicylate in the UV wavelength region separately. […] Therefore, the α-mangostin has obvious advantages over the sunscreen agent octyl salicylate, and has a part of the absorption band which can be complementary to that of octyl salicylate, enhancing the UVB protection effect and increasing the SPF value.

[7] = Oxygen Radical Absorbance Capacity (ORAC) assay against peroxyl radicals; conditions: trolox equivalent
Procedure: as §1

[8] = ORAC 5.0 (sum of five ORAC results); conditions: trolox equivalent
Procedure: Test Method: Oxygen Radical Absorbance Capacity (ORAC) Assay
as §1, with “Specific” for “Test Method: Oxygen Radical Absorbance Capacity (ORAC) Assay Specific”, “sample.” for “sample. The results of ORAC are expressed as micromole trolox equivalent (μmole TE)/gram. Trolox is a vitamin E analog, which is an antioxidant standard substance.”
Note: There are 5 main reactive oxygen species (ROS) in the human body: peroxy radicals, hydroxyl radicals, peroxynitrite, superoxide anions and singlet oxygen.
The results of ORAC are expressed as micromole trolox equivalent (μmole TE)/gram. Trolox is a vitamin E analog, which is an antioxidant standard substance.

[9] = Photolysis of butyl methoxydibenzoylmethane under sunlight and its inhibition by α-mangostin (absorbance at 357 nm); assay type: physicochemical; conditions: for M value: M=Bi/Ai, butyl methoxydibenzoylmethane remaining with α-mangostin vs control
Procedure: Instrument and equipment: Model 751-GW spectrophotometer; and FA1004 electronic balance. Reagents: butyl methoxydibenzoylmethane, from Shanghai SIMP Co., Ltd.; and an α-mangostin sample. • (6) Formulation of standard stock solutions of butyl methoxydibenzoylmethane and the sample: 20.0 mg of butyl methoxydibenzoylmethane and α-mangostin were weighed separately, and diluted with a specific mixed solvent (an acetone-water mixed solvent with a ratio by volume of acetone to water of 5:1, hereinafter referred to as mixed solvent) to a volume of 10 ml. • (7) Formulation of reference solutions of butyl methoxydibenzoylmethane and the sample: The mixed solvent was used as the reference solution of butyl methoxydibenzoylmethane. 0.1 ml of the standard stock solution of the α-mangostin sample was drawn, and diluted with the mixed solvent to a volume of 10 ml, as the reference solution of the sample. • (8) Formulation of standard working solutions (20 μg/ml) of butyl methoxydibenzoylmethane and the sample: 0.1 ml of the standard stock solution of butyl methoxydibenzoylmethane was drawn and diluted with the mixed solvent to a volume of 10 ml. 0.1 ml aliquots of the standard stock solution of the α-mangostin sample were drawn separately, and added separately to 0.1 ml aliquots of the standard stock solution of butyl methoxydibenzoylmethane, and then diluted with the mixed solvent to a volume of 10 ml. • (9) Reference solutions and standard working solutions of different concentrations of rutin were formulated according to Steps (2) and (3). • (10) Determination of the photolysis rate and photolysis inhibition rate of butyl methoxydibenzoylmethane: The absorbance of the standard working solution of butyl methoxydibenzoylmethane and the absorbance of butyl methoxydibenzoylmethane in the α-mangostin sample were measured at 357 nm. Then they were subjected to the sunlight exposure, and the absorbance thereof was measured every day. The photolysis rate, the photolysis inhibition rate and the M value of butyl methoxydibenzoylmethane were calculated according to the following formulas: % Photolysis rate=(A0−Ai)/A0×100% % Photolysis inhibition rate=[1−(B0−Bi)/(A0−Ai)]×100 M=Bi/Ai In the formulas, A0 is the absorbance of the standard working solution of butyl methoxydibenzoylmethane; Ai is the absorbance of the standard working solution of butyl methoxydibenzoylmethane after i days of light exposure; B0 is the absorbance of butyl methoxydibenzoylmethane in the standard working solution of the α-mangostin sample; Bi is the absorbance of butyl methoxydibenzoylmethane in the standard working solution of the α-mangostin sample after i days of light exposure; and M is the ratio of the amount of butyl methoxydibenzoylmethane remaining in the α-mangostin sample to the amount of butyl methoxydibenzoylmethane remaining in the control sample without the sample added. For the above α-mangostin sample and butyl methoxydibenzoylmethane, each was determined for the photolysis inhibition rate or the photolysis rate at the same exposure time, to obtain the curve of light exposure time vs. photolysis inhibition rate of the α-mangostin sample (FIG. 3) and the curve of light exposure time vs. photolysis rate of butyl methoxydibenzoylmethane (FIG. 2).

COc1c(O)cc2oc3cc(O)c(CC=C(C)C)c(O)c3c(=O)c2c1CC=C(C)C [α-mangostin]
ORAC against hydroxyl radicals [1]: 9,055 μmole TE/gram
solubility in water (in words) [2]: poor solubility in water
ORAC against single oxygen [3]: 262 μmole TE/gram
ORAC against oxide anion [4]: 13,043 μmole TE/gram
ORAC against peroxynitrite [5]: 404 μmole TE/gram
UV absorption (in words) [6]: relatively strong absorption from the UVB range of 290-320 nm to the UVA range of 320-400 nm
ORAC against peroxyl radicals [7]: 8,704 μmole TE/gram
ORAC 5.0 (sum of above) [8]: 31,468 μmole TE/gram
M value ([9]; Day 1): 5.77
M value ([9]; Day 2): 12.31
inhibitory effect on the photolysis of butyl methoxydibenzoylmethane (in words) ([9]; sunlight): very good inhibitory effect
Inhibition rate of α-mangostin (photolysis inhibition rate) ([9]; sunlight, light exposure time 1 d, 20 μg/ml each): 84.3%
Inhibition rate of α-mangostin (photolysis inhibition rate) ([9]; sunlight, light exposure time 2 d): 82.9%
Inhibition rate of α-mangostin (photolysis inhibition rate) ([9]; sunlight, light exposure time 3 d): 82.1%
Inhibition rate of α-mangostin (photolysis inhibition rate) ([9]; sunlight, light exposure time 4 d): 80.5%
Inhibition rate of α-mangostin (photolysis inhibition rate) ([9]; sunlight, light exposure time 5 d): 76.4%
